Laboratory results as given in patent US12233161B1, “Lipids and lipid nanoparticle formulations” (LONGUIDE BIOPHARMA CORPORATION, priority 2024, dated 2025).
Blank lines part the entries; values can stand above or below the compound they belong to.

How the values were obtained:
mice = assay: In vivo delivery of FLuc-mRNA lipid nanoparticles in mice, in vivo imaging (IVIS)
Summary of the method: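 Mice (n=3) received about 75 μL FLuc-mRNA LNP per mouse intramuscularly (rectus femoris), intravenously (tail vein), intraperitoneally or subcutaneously (back). After injection, D-luciferin (200 μL, 15 mg/mL) was given i.p. 10-15 min before IVIS imaging.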

[1] = Particle size and PDI of nucleic acid lipid nanoparticle preparations by dynamic light scattering; format: physicochemical
Summary of the method: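 Size read by DLS after diluting the LNP preparation (approx. 0.04 mg/mL mRNA) in ultrapure water with gentle pipette mixing. The same sample, recovered and diluted further with water, was then used for zeta potential measurement.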

[2] = DMG-PEG2000:DSPC:Chol:Lipid 1.40:11.15:38.95:48.50, N/P 30, IV, liver
[3] = DMG-PEG2000:DSPC:Chol:Lipid 1.40:11.15:38.95:48.50, N/P 30, IV, lung
[4] = DMG-PEG2000:DSPC:Chol:Lipid 1.40:11.15:38.95:48.50, N/P 30, IV, spleen
[5] = DMG-PEG2000:DSPC:Chol:Lipid 1.50:11.50:52.00:35.00, N/P 18, IV, liver
[6] = DMG-PEG2000:DSPC:Chol:Lipid 1.50:11.50:52.00:35.00, N/P 18, IV, lung
[7] = DMG-PEG2000:DSPC:Chol:Lipid 1.50:11.50:52.00:35.00, N/P 18, IV, spleen
[8] = DMG-PEG2000:DSPC:Chol:Lipid 1.40:11.15:38.95:48.50, N/P 30, mRNA LNP
[9] = DMG-PEG2000:DSPC:Chol:Lipid 1.50:11.50:52.00:35.00, N/P 18, mRNA LNP
[10] = DMG-PEG2000:DSPC:Chol:Lipid 1.40:11.15:38.95:48.50, N/P 48, mRNA LNP
[11] = DMG-PEG2000:DSPC:Chol:Lipid 1.77:14.07:49.16:35.00, N/P 48, mRNA LNP
[12] = IM, DMG-PEG2000:DSPC:Chol:compound 1.40:11.15:38.95:48.50, N/P 20, Fluc-mRNA
[13] = DMG-PEG2000:DSPC:Chol:compound 1.40:11.15:38.95:48.50, N/P 20
[14] = IM, DMG-PEG2000:DSPC:Chol:compound 1.40:11.15:38.95:48.50, N/P 30, Fluc-mRNA
[15] = DMG-PEG2000:DSPC:Chol:compound 1.40:11.15:38.95:48.50, N/P 30
[16] = DMG-PEG2000:DSPC:Chol:Lipid 1.40:11.15:38.95:48.50, N/P 60, mRNA LNP
[17] = DMG-PEG2000:DSPC:Chol:Lipid 1.77:14.07:49.16:35.00, N/P 60, mRNA LNP
[18] = IV, body, DMG-PEG2000:DSPC:Chol:compound 1.40:11.15:38.95:48.50, N/P 30, Fluc-mRNA
[19] = IV, liver, DMG-PEG2000:DSPC:Chol:compound 1.40:11.15:38.95:48.50, N/P 30
[20] = IV, liver, DMG-PEG2000:DSPC:Chol:compound 1.40:11.15:38.95:48.50, N/P 30, Fluc-mRNA
[21] = IV, lung, DMG-PEG2000:DSPC:Chol:compound 1.40:11.15:38.95:48.50, N/P 30
[22] = IV, lung, DMG-PEG2000:DSPC:Chol:compound 1.40:11.15:38.95:48.50, N/P 30, Fluc-mRNA
[23] = IV, spleen, DMG-PEG2000:DSPC:Chol:compound 1.40:11.15:38.95:48.50, N/P 30
[24] = IV, spleen, DMG-PEG2000:DSPC:Chol:compound 1.40:11.15:38.95:48.50, N/P 30, Fluc-mRNA

Compound: CCCCCCOCOCCCCCCOC(=O)C(O)CN(CCCN(CC(O)C(=O)OCCCCCCOCOCCCCCC)CC(O)C(=O)OCCCCCCOCOCCCCCC)CCCN(CC(O)C(=O)OCCCCCCOCOCCCCCC)CC(O)C(=O)OCCCCCCOCOCCCCCC (stereo not drawn) [Compound L0270]
IVIS (mice; DMG-PEG2000:DSPC:Chol:Lipid 1.40:11.15:38.95:48.50, N/P 48, IM, whole body scan): 2.09 × 10^7
IVIS (mice; DMG-PEG2000:DSPC:Chol:Lipid 1.40:11.15:38.95:48.50, N/P 48, IV, whole body scan): 1.56 × 10^9
IVIS (mice; DMG-PEG2000:DSPC:Chol:Lipid 1.77:14.07:49.16:35.00, N/P 48, IH, whole body scan): 2.89 × 10^6
in vivo delivery efficiency as compared to the benchmark compound SM102 (mice; certain formulations, Table 2): superior in vivo delivery efficiency
PDI [1, 10]: 0.12 ± 0.00
Particle size [1, 10]: 131.00 ± 1.32 nm
PDI [1, 11]: 0.10 ± 0.03
Particle size [1, 11]: 144.83 ± 1.39 nm

Compound: CCCCCCOCOCCCCCCOC(=O)C(O)CN(C)CCCN(C)CCCN(C)CC(O)C(=O)OCCCCCCOCOCCCCCC (stereo not drawn) [Compound L0331]
IVIS (mice; [14]): 3.39E+06
IVIS (mice; IV, organ not given, DMG-PEG2000:DSPC:Chol:compound 1.40:11.15:38.95:48.50, N/P 30, Fluc-mRNA): 9.27E+05
PDI [1, 15]: 0.06
Particle size (nm) [1, 15]: 122.67 nm

Compound: CCCCCCCCCCNC(=O)C(O)CN(CCCN(CC(O)C(=O)NCCCCCCCCCC)CC(O)C(=O)NCCCCCCCCCC)CCCN(CC(O)C(=O)NCCCCCCCCCC)CC(O)C(=O)NCCCCCCCCCC (stereo not drawn) [Compound L0268]
IVIS (mice; DMG-PEG2000:DSPC:Chol:Lipid 1.40:11.15:38.95:48.50, N/P 60, IV, whole body scan): 3.80 × 10^5
IVIS (mice; DMG-PEG2000:DSPC:Chol:Lipid 1.77:14.07:49.16:35.00, N/P 60, IM, whole body scan): 5.86 × 10^5
PDI [1, 16]: 0.07 ± 0.01
Particle size [1, 16]: 116.83 ± 1.07 nm
PDI [1, 17]: 0.08 ± 0.01
Particle size [1, 17]: 95.36 ± 0.61 nm

Compound: CCCCCCC(CCCCCC)C(=O)OCCCCOC(=O)C(O)CN(CCN(C)CCN(CC(O)C(=O)OCCCCOC(=O)C(CCCCCC)CCCCCC)CC(O)C(=O)OCCCCOC(=O)C(CCCCCC)CCCCCC)CC(O)C(=O)OCCCCOC(=O)C(CCCCCC)CCCCCC (stereo not drawn) [Compound L0297]
IVIS (mice; [14]): 8.34E+07
IVIS (mice; [18]): 1.64E+08
% of organ targeting (mice; [19]): 35.19%
IVIS (mice; [20]): 3.82E+07
% of organ targeting (mice; [21]): 13.24%
IVIS (mice; [22]): 1.44E+07
% of organ targeting (mice; [23]): 51.57%
IVIS (mice; [24]): 5.59E+07
PDI [1, 15]: 0.13
Particle size (nm) [1, 15]: 119.00 nm

Compound: CCCCCCCCC(CCCCCC)C(=O)OCCCCOC(=O)C(O)CN(CCN(C)CCN(CC(O)C(=O)OCCCCOC(=O)C(CCCCCC)CCCCCCCC)CC(O)C(=O)OCCCCOC(=O)C(CCCCCC)CCCCCCCC)CC(O)C(=O)OCCCCOC(=O)C(CCCCCC)CCCCCCCC (stereo not drawn) [Compound L0298]
IVIS (mice; [14]): 5.25E+07
IVIS (mice; [18]): 1.30E+08
% of organ targeting (mice; [19]): 39.52%
IVIS (mice; [20]): 3.03E+07
% of organ targeting (mice; [21]): 5.53%
IVIS (mice; [22]): 4.23E+06
% of organ targeting (mice; [23]): 54.95%
IVIS (mice; [24]): 4.21E+07
PDI [1, 15]: 0.11
Particle size (nm) [1, 15]: 91.43 nm

Further lines, with some results ahead:

PDI [1, 8]: 0.15 ± 0.02
Particle size [1, 8]: 85.38 ± 0.31 nm
PDI [1, 9]: 0.18 ± 0.00
Particle size [1, 9]: 100.32 ± 0.97 nm
Compound: CCCCCCCCCCCCNC(=O)C(O)CN(CCCN(CCCCO)CCCN(CC(O)C(=O)NCCCCCCCCCCCC)CC(O)C(=O)NCCCCCCCCCCCC)CC(O)C(=O)NCCCCCCCCCCCC (stereo not drawn) [Compound L0282]
IVIS (mice; DMG-PEG2000:DSPC:Chol:Lipid 1.40:11.15:38.95:48.50, N/P 30, IM, whole body scan): 5.98 × 10^6
IVIS (mice; DMG-PEG2000:DSPC:Chol:Lipid 1.40:11.15:38.95:48.50, N/P 30, IV, body (whole body scan)): 1.50 × 10^7
% of organ targeting (mice; [2]): 2.75%
IVIS (mice; [2]): 6.77 × 10^5
% of organ targeting (mice; [3]): 60.96%
IVIS (mice; [3]): 1.50 × 10^7
% of organ targeting (mice; [4]): 36.29%
IVIS (mice; [4]): 8.93 × 10^6
IVIS (mice; DMG-PEG2000:DSPC:Chol:Lipid 1.50:11.50:52.00:35.00, N/P 18, IV, body): 3.77 × 10^6
% of organ targeting (mice; [5]): 7.18%
IVIS (mice; [5]): 6.44 × 10^5
% of organ targeting (mice; [6]): 8.27%
IVIS (mice; [6]): 7.41 × 10^5
% of organ targeting (mice; [7]): 84.55%
IVIS (mice; [7]): 7.58 × 10^6
tissue-targeting specificity (lung vs spleen depending on molar percentage of compound) (mice; certain formulations, Table 2): strong tissue-targeting specificity

PDI [1, 13]: 0.18
Particle size (nm) [1, 13]: 109.93 nm
Compound: CCCCCCCCCCCCNC(=O)C(O)CN(CCOCCOCCN(CC(O)C(=O)NCCCCCCCCCCCC)CC(O)C(=O)NCCCCCCCCCCCC)CC(O)C(=O)NCCCCCCCCCCCC (stereo not drawn) [Compound L0305]
IVIS (mice; [12]): 4.39E+04
IVIS (mice; IV, body, DMG-PEG2000:DSPC:Chol:compound 1.40:11.15:38.95:48.50, N/P 20, Fluc-mRNA): 8.12E+06
% of organ targeting (mice; IV, liver, DMG-PEG2000:DSPC:Chol:compound 1.40:11.15:38.95:48.50, N/P 20): 35.21%
IVIS (mice; IV, liver, DMG-PEG2000:DSPC:Chol:compound 1.40:11.15:38.95:48.50, N/P 20, Fluc-mRNA): 2.14E+06
% of organ targeting (mice; IV, lung, DMG-PEG2000:DSPC:Chol:compound 1.40:11.15:38.95:48.50, N/P 20): 1.65%
IVIS (mice; IV, lung, DMG-PEG2000:DSPC:Chol:compound 1.40:11.15:38.95:48.50, N/P 20, Fluc-mRNA): 1.00E+05
% of organ targeting (mice; IV, spleen, DMG-PEG2000:DSPC:Chol:compound 1.40:11.15:38.95:48.50, N/P 20): 63.14%
IVIS (mice; IV, spleen, DMG-PEG2000:DSPC:Chol:compound 1.40:11.15:38.95:48.50, N/P 20, Fluc-mRNA): 3.84E+06

PDI [1, 13]: 0.14
Particle size (nm) [1, 13]: 103.37 nm
Compound: CCCCCCCCCCNC(=O)C(O)CN(CCOCCN(CC(O)C(=O)NCCCCCCCCCC)CC(O)C(=O)NCCCCCCCCCC)CC(O)C(=O)NCCCCCCCCCC (stereo not drawn) [Compound L0326]
IVIS (mice; [12]): 6.75E+05
IVIS (mice; IV, organ not given, DMG-PEG2000:DSPC:Chol:compound 1.40:11.15:38.95:48.50, N/P 20, Fluc-mRNA): 1.02E+06
